{"source": "patent US20060210479A1", "about": "(Dow Global Technologies Inc., priority 2004, published 2006)", "key": {"[1]": {"tested_on": "cancer cell lines (CaCo-2, Du-145, SK-MES, HLaC, C33-A)", "settings": "relative to control cells"}, "Caco-2 cell line": {"tested_on": "Caco-2 cell line", "test": "Chelate permeability: fluorescence of cytoplasm and membrane fractions", "type": "cell-based, human"}, "[2]": {"tested_on": "cancer cells (LNCaP, Caco-2, T84)", "test": "Chelate permeability and specificity, cancer cells versus normal cells (summary)", "type": "cell-based, human", "settings": "cancer cells"}, "Caco-2 cells": {"tested_on": "Caco-2 cells", "settings": "1 mM, 1 h", "description": "Before images were captured, an aliquot of the HEPES binding buffer was mounted on a slide and observed for any background fluorescence."}, "NCM-460 cells": {"tested_on": "NCM-460 cells", "settings": "for EuQCTME Cell Binding (fluorescence per well): 1 mM"}, "[3]": {"tested_on": "DMBA-induced tumor tissue of buccal cheek pouch", "settings": "2 mM solution topical, 10 minutes; for Fluorescence/mg Cytoplasm / Fluorescence/mg Membrane: readings Adjusted Volume CNT*mm2"}, "HLAC cells": {"tested_on": "HLAC cells", "settings": "for EuQCTME Cell Binding (fluorescence per well): 1 mM"}, "RBL-2H3 cell line": {"tested_on": "RBL-2H3 cell line", "test": "Chelate permeability: fluorescence of cytoplasm and membrane fractions", "type": "cell-based, rat", "procedure": "Tb-PCTMB (Tb(III) 3,6,9-tris(methylene phosphonic acid n-butyl ester)-3,6,9,15-tetraazabicyclo[9.3.1]pentadeca-1(15),11,13-triene) was tested for permeability to abnormal and disease-state cells.\nRBL-2H3 is a rat basophilic leukemia cell line. These cells were grown in Iscove's Medium supplemented with 2 mM L-glutamnine, penicillin/streptomycin (100 IU/mL, 100 μg/mL) and 10% FBS. Cells were maintained at 5% CO2 and 95% humidity. PZ-HPV-7 cell line was derived from epithelial cells cultured from normal prostate tissue. They were grown in Keratinocyte-Serum Free Medium with human recombinant EGF and bovine pituitary extract supplemented with 50 μg/mL gentamicin and penicillin/streptomycin (100 IU/mL, 100 μg/mL). All media and supplements were purchased from Gibco BRL (Grand Island, N.Y., USA). All cell lines were obtained from ATCC and were maintained at 37° C., 5% CO2 and 95% humidity.\nCells were grown to confluence in T-150 flasks (about 2×10^6 cells). […] Cells were then removed from the flask by manual scraping. Cells were transferred to a 50-mL conical tube and centrifuged (400×g) for 5 minutes and the test material removed.\nCells were grown as described herein (Example 1). Cells were grown to confluence in T-150 flask (about 2×10^6 cells). […] Cells were then removed from the flask by manual scraping. Cells were transferred to a 50-mL conical tube and centrifuged (400×g) for 5 minutes and the test material removed.\nFurthermore, one analogue, QCTMP (FIG. 26), having lesser lipophilic character (a free phosphonic acid moiety) was evaluated. […] In this study, the cytoplasm and membrane fractions were extracted by Mem-PER Eukaryotic Membrane Protein Extraction Reagent Kit as described by the manufacturers (Pierce Biotechnology, Rockford, Ill.) and analyzed by a Fluor-S Multilmager."}, "LNCaP cell line": {"tested_on": "LNCaP cell line", "test": "Chelate permeability: fluorescence of cytoplasm and membrane fractions", "type": "cell-based, human"}, "SK-MES cells": {"tested_on": "SK-MES cells", "settings": "for EuQCTME Cell Binding (fluorescence per well): 1 mM"}, "[4]": {"tested_on": "HLaC head & neck squamous cell carcinoma cells", "settings": "read-out: Chelate Concentration Producing 50% Inhibition of Cancer Cell Growth, MTS, 96 hour continuous exposure", "procedure": "(§1) To assess whether or not chelate treatment of cancer cells could produce a net modulation in cell growth, the overall growth inhibitory effect of chelates on various cancer cell lines was tested. The concentration of chelate necessary to produce 50% growth inhibition was measured, as determined by detection of the formazan product of cellular […] of 3-(4,5-dimethylthiazol-2-yl)-5-(3-carboxymethoxyphenyl)-2-(4-sulfophenyl)-2H-tetrazolium, inner salt (MTS)."}, "[5]": {"tested_on": "LnCaP prostate adenocarcinoma cells", "procedure": "as §1"}, "[6]": {"tested_on": "Caki-1 renal cell carcinoma cells", "settings": "read-out: Chelate Concentration Producing 50% Inhibition of Cancer Cell Growth, MTS, 96 hour continuous exposure", "procedure": "as §1"}, "[7]": {"tested_on": "CaCo-2 colorectal adenocarcinoma cells", "settings": "read-out: Chelate Concentration Producing 50% Inhibition of Cancer Cell Growth, MTS, 96 hour continuous exposure", "procedure": "as §1"}, "[8]": {"tested_on": "MDA-231-M breast adenocarcinoma cells, metastatic clone", "settings": "read-out: Chelate Concentration Producing 50% Inhibition of Cancer Cell Growth, MTS, 96 hour continuous exposure", "procedure": "as §1"}, "[9]": {"tested_on": "NCM460 normal human colon epithelial cells", "settings": "read-out: Chelate Concentration Producing 50% Inhibition of Cancer Cell Growth; NCM460 control line; MTS; 96 hour continuous exposure", "procedure": "as §1"}, "[10]": {"tested_on": "MDA-231 breast adenocarcinoma cells", "procedure": "as §1"}, "[11]": {"tested_on": "SK-MES lung non-small cell squamous carcinoma cells", "settings": "read-out: Chelate Concentration Producing 50% Inhibition of Cancer Cell Growth, MTS, 96 hour continuous exposure", "procedure": "as §1"}, "[12]": {"settings": "0-2000 μM, 2 hours, compared to PZ-HPV-7"}}, "note": "Several values for one entry are separate records, joined by “and”; a condition that tells them apart may be missing. Equal entries are not always repeated. Where two headings read alike, the source gives them in different places.", "data": [{"smiles": "CCOP(=O)([O-])CN1CCN(Cc2ccc3cc(C)ccc3n2)CCN(CP(=O)([O-])OCC)CCN(CP(=O)([O-])OCC)CC1.[Eu+3]", "note": "[Eu-QCTME, Eu(III) N-(6-methyl-2-quinolylmethyl)-N′,N″,N′″-tris(methylenephosphonic acid ethyl ester)-1,4,7,10-tetraazacyclododecane]", "values": [{"measurement": "time of initial burst of cell-bound fluorescence", "setting": "[1]", "value": "≤ 5", "unit": "min"}, {"measurement": "fluorescence in the membrane fractions, dose response", "setting": "Caco-2 cell line; 0-2000 μM, 2 hours", "value": "detectable quantity of fluorescence"}, {"measurement": "fluorescence in the cytoplasm, dose response", "setting": "Caco-2 cell line; [12]", "value": "significant increases in fluorescence"}, {"measurement": "Fluorescence/mg Cytoplasm", "setting": "Caco-2 cell line; 1 mM chelate, 2 h, Table 4", "value": 4339}, {"measurement": "Fluorescence/mg Membrane", "setting": "Caco-2 cell line; 1 mM chelate, 2 h, Table 4", "value": 2524}, {"measurement": "permeability to cell membranes", "setting": "[2]", "value": "permeable to cancer cell membranes"}, {"measurement": "localization by confocal microscopy", "setting": "Caco-2 cells", "value": "predominantly cytoplasmic localization"}, {"measurement": "EuQCTME Cell Binding (fluorescence per well)", "setting": "NCM-460 cells; 2 min", "value": "2,757"}, {"measurement": "EuQCTME Cell Binding (fluorescence per well)", "setting": "NCM-460 cells; 5 min", "value": "3,325"}, {"measurement": "EuQCTME Cell Binding (fluorescence per well)", "setting": "NCM-460 cells; 15 min", "value": "14,042"}, {"measurement": "EuQCTME Cell Binding (fluorescence per well)", "setting": "NCM-460 cells; 30 min", "value": "18,535"}, {"measurement": "EuQCTME Cell Binding (fluorescence per well)", "setting": "NCM-460 cells; 45 min", "value": "18,737"}, {"measurement": "EuQCTME Cell Binding (fluorescence per well)", "setting": "NCM-460 cells; 60 min", "value": "20,666"}, {"measurement": "EuQCTME Cell Binding (fluorescence per well)", "setting": "NCM-460 cells; 120 min", "value": "2,388"}, {"measurement": "EuQCTME Cell Binding (fluorescence per well)", "setting": "NCM-460 cells; 180 min", "value": "1,598"}, {"measurement": "EuQCTME Cell Binding (fluorescence per well)", "setting": "NCM-460 cells; 240 min", "value": "16,682"}, {"measurement": "Totals: Normalized total area under each curve (AUC)", "setting": "NCM-460 cells; over 240 min", "value": 44}, {"measurement": "fluorescence in the cytoplasm of tumor tissue compared to normal tissue", "setting": "[3]", "value": "significantly greater fluorescence"}, {"measurement": "Fluorescence/mg Cytoplasm", "setting": "[3]; Tumor 1", "value": 3524}, {"measurement": "Fluorescence/mg Membrane", "setting": "[3]; Tumor 1", "value": 1670}, {"measurement": "Fluorescence/mg Cytoplasm", "setting": "[3]; Tumor 2", "value": 3659}, {"measurement": "Fluorescence/mg Membrane", "setting": "[3]; Tumor 2", "value": 1676}, {"measurement": "EuQCTME Cell Binding (fluorescence per well)", "setting": "HLAC cells; 2 min", "value": "15,807"}, {"measurement": "EuQCTME Cell Binding (fluorescence per well)", "setting": "HLAC cells; 5 min", "value": "20,493"}, {"measurement": "EuQCTME Cell Binding (fluorescence per well)", "setting": "HLAC cells; 15 min", "value": "13,704"}, {"measurement": "EuQCTME Cell Binding (fluorescence per well)", "setting": "HLAC cells; 30 min", "value": "6,300"}, {"measurement": "EuQCTME Cell Binding (fluorescence per well)", "setting": "HLAC cells; 45 min", "value": "10,068"}, {"measurement": "EuQCTME Cell Binding (fluorescence per well)", "setting": "HLAC cells; 60 min", "value": "3,206"}, {"measurement": "EuQCTME Cell Binding (fluorescence per well)", "setting": "HLAC cells; 120 min", "value": "21,877"}, {"measurement": "EuQCTME Cell Binding (fluorescence per well)", "setting": "HLAC cells; 180 min", "value": "6,510"}, {"measurement": "EuQCTME Cell Binding (fluorescence per well)", "setting": "HLAC cells; 240 min", "value": "2,401"}, {"measurement": "Totals: Normalized total area under each curve (AUC)", "setting": "HLAC cells; over 240 min", "value": 51}, {"measurement": "cancer cell lines significantly inhibited compared to control", "setting": "human cancer cell lines", "value": "8 of 10 cancer cell lines were significantly inhibited"}, {"measurement": "IC50", "setting": "human cancer cell lines; read-out: Half-maximum growth inhibition concentration, range over examined cancer cell lines, 96 hour continuous exposure", "value": "16 to 140", "unit": "µM"}, {"measurement": "time course cytotoxicity", "setting": "human cancer cell lines; up to 48 hours, most malignant cell lines", "value": "lack of measurable cytotoxicity"}, {"measurement": "fluorescence in the membrane fractions, dose response", "setting": "RBL-2H3 cell line; 0-2000 μM, 2 hours", "value": "detectable quantity of fluorescence"}, {"measurement": "fluorescence in the cytoplasm, dose response", "setting": "RBL-2H3 cell line; [12]", "value": "significant increases in fluorescence"}, {"measurement": "Fluorescence/mg Cytoplasm", "setting": "RBL-2H3 cell line; 1 mM chelate, 2 h, Table 4", "value": 4415}, {"measurement": "Fluorescence/mg Membrane", "setting": "RBL-2H3 cell line; 1 mM chelate, 2 h, Table 4", "value": 2644}, {"measurement": "fluorescence in the cytoplasm, dose response", "setting": "LNCaP cell line; [12]", "value": "significant increases in fluorescence"}, {"measurement": "Fluorescence/mg Cytoplasm", "setting": "LNCaP cell line; 1 mM chelate, 2 h, Table 4", "value": 3881}, {"measurement": "Fluorescence/mg Membrane", "setting": "LNCaP cell line; 1 mM chelate, 2 h, Table 4", "value": 2561}, {"measurement": "EuQCTME Cell Binding (fluorescence per well)", "setting": "SK-MES cells; 2 min", "value": "21,983"}, {"measurement": "EuQCTME Cell Binding (fluorescence per well)", "setting": "SK-MES cells; 5 min", "value": "11,756"}, {"measurement": "EuQCTME Cell Binding (fluorescence per well)", "setting": "SK-MES cells; 15 min", "value": "8,588"}, {"measurement": "EuQCTME Cell Binding (fluorescence per well)", "setting": "SK-MES cells; 30 min", "value": "7,237"}, {"measurement": "EuQCTME Cell Binding (fluorescence per well)", "setting": "SK-MES cells; 45 min", "value": "9,513"}, {"measurement": "EuQCTME Cell Binding (fluorescence per well)", "setting": "SK-MES cells; 60 min", "value": "5,358"}, {"measurement": "EuQCTME Cell Binding (fluorescence per well)", "setting": "SK-MES cells; 120 min", "value": "8,159"}, {"measurement": "EuQCTME Cell Binding (fluorescence per well)", "setting": "SK-MES cells; 180 min", "value": "5,682"}, {"measurement": "EuQCTME Cell Binding (fluorescence per well)", "setting": "SK-MES cells; 240 min", "value": "15,625"}, {"measurement": "Totals: Normalized total area under each curve (AUC)", "setting": "SK-MES cells; over 240 min", "value": 28}, {"measurement": "IC50", "setting": "[4]", "value": 21.9, "unit": "µM"}, {"measurement": "growth inhibition", "setting": "[5]; LNCAP, 500 μM, 24 hours exposure", "value": "over 30%"}, {"measurement": "IC50", "setting": "[5]; read-out: Chelate Concentration Producing 50% Inhibition of Cancer Cell Growth, LnCaP, MTS, 96 hour continuous exposure", "value": 46.4, "unit": "µM"}, {"measurement": "IC50", "setting": "[6]", "value": 16, "unit": "µM"}, {"measurement": "IC50", "setting": "[7]", "value": 134, "unit": "µM"}, {"measurement": "IC50", "setting": "[8]", "value": 46.8, "unit": "µM"}, {"measurement": "IC50", "setting": "[9]", "value": "123 µM and 124 µM"}, {"measurement": "inhibitory activity, time course MTS", "setting": "[10]; MDA-231, 500 μM, 24 hours", "value": "showed inhibitory activity"}, {"measurement": "growth inhibition", "setting": "[10]; MDA-MB-231, 500 μM, 24 hours exposure", "value": "over 30%"}, {"measurement": "IC50", "setting": "[10]; read-out: Chelate Concentration Producing 50% Inhibition of Cancer Cell Growth, MDA-231, MTS, 96 hour continuous exposure", "value": 39.6, "unit": "µM"}, {"measurement": "IC50", "setting": "[11]", "value": 140, "unit": "µM"}]}]}
